Results taken from patent publication US20110152212A1, “Aqueous Formulations” (priority 2007, published 2011).
In brackets after ≈: the same amount, converted by molar mass.

Key:
[1] = Intrinsic solubility of drug; format: physicochemical
Source text: (§1) J. Pharm 302(2005), 18-28 and S. I. F. Badaway et al, Int. J. Pharmaceut.128(1996), 45-54.

[2] = Solubility in 10% w/v hydroxypropyl cyclodextrin solution; format: physicochemical; conditions: for solubility: 10% w/v hydroxypropyl cyclodextrin solution, aqueous with cosolvent or surfactant or cyclodextrin, read-out: Solubility in 10% w/v Hydroxypropyl Cyclodextrin soln.
Source text: as §1

[3] = Solubility in Example 7 formulation (hydrogel in 50:50 wt % water/ethanol); format: physicochemical; conditions: 50:50 wt % water/ethanol with polyvinylalcohol and butylidene polymer; for solubility: aqueous with cosolvent or surfactant or cyclodextrin
Source text: As an alternative to the general procedure described in Example 2 and the procedures described in other examples, a solvent may comprise a 50:50 wt % water/ethanol solution. The polyvinylalcohol and butylidene polymer may be included in such a solvent and the mixture may then be acidified to a pH of not less than 2.5 to cause polyvinylalcohol and butylidene polymer to react in an acid catalysed reaction. A drug of low solubility may then be added to the mixture as described in the other examples.
as §1

[4] = Time for solid drug to dissolve in acidified hydrogel mixture at ambient temperature with stirring; format: physicochemical; conditions: 0.2 wt % drug in 0.5 wt % hydrogel, pH about 2.5, ambient temperature
Description: A 0.5 wt % formulation of a hydrogel was prepared comprising Poval 220 polyvinylalcohol and the butylidene polymer of Example 1 in the weight ratio 10:1. The pH of the mixture was lowered to about 2.5 by addition of hydrochloric acid and, with the pH at the lowered level, doxorubicin, a solid red powder, was added at ambient temperature with stirring to give a level of 0.2 wt % doxorubicin in the mixture. […] After the formulation has been prepared, the pH may be raised to about 7 by addition of alkali to neutralise it.
A 2 wt % formulation of a hydrogel was prepared comprising KH-20 polyvinylalcohol and the butylidene polymer of Example 1 in a weight ratio 10:1. The pH of the mixture was lowered to about 2.5, by addition of hydrochloric acid. Then, doxycycline, in a solid form, was added at ambient temperature with stirring to give a level of 0.5 wt % of doxycycline in the mixture. The doxycycline appeared to dissolve in the water within about 15 minutes to give a clear pale yellow mixture which appeared to comprise a solution but more likely comprises complexed doxycycline.

[5] = physchem; conditions: pH 2.5, aqueous with cosolvent or surfactant or cyclodextrin, thermodynamic from solid
[6] = aqueous formulation, Poval 220 polyvinylalcohol/butylidene polymer hydrogel (Example 3 process)

| SMILES | Intrinsic Solubility [1] | solubility [2] | solubility [3] | solubility [1] | also measured |
| --- | --- | --- | --- | --- | --- |
| Clc1ccccc1C(c1ccccc1)(c1ccccc1)n1ccnc1 [Clotrimazole] | 70 µg/mL | 1210 µg/mL (≈ 3.51 mM) | 11800 µg/mL (≈ 34.2 mM) | – | – |
| CC(C)c1cccc(C(C)C)c1O [Propafol] | 160 µg/mL | – | – | – | Solubility in 10% w/v Hydroxypropyl Cyclodextrin soln. [2]: 7690 µg/mL (≈ 43.1 mM); Example 7 formulation (solubility) [3]: 34800 µg/mL |
| Clc1ccc(COC(Cn2ccnc2)c2ccc(Cl)cc2Cl)c(Cl)c1 (stereo not drawn) [Miconazole] | – | 2460 µg/mL (≈ 5.91 mM) | 4700 µg/mL (≈ 11.3 mM) | 90 µg/mL (≈ 0.216 mM) | – |
| Clc1ccc(COC(Cn2ccnc2)c2ccc(Cl)cc2Cl)cc1 (stereo not drawn) [Econazole] | – | 4990 µg/mL (≈ 13.1 mM) | 12600 µg/mL (≈ 33 mM) | 370 µg/mL (≈ 0.969 mM) | – |
| COc1cccc2c1C(=O)c1c(O)c3c(c(O)c1C2=O)C[C@@](O)(C(=O)CO)C[C@@H]3O[C@H]1C[C@H](N)[C@H](O)[C@H](C)O1 [doxorubicin] | – | – | – | – | appeared to dissolve in the water (time) [4]: substantially instantaneously; solubility [5]: 115000 µg/mL (≈ 212 mM); saturation solubility [6]: 11.5 % w/v |
